{
  "source": "patent US20260327211A1",
  "about": "“MODULATORS OF A POTASSIUM CHANNEL AND OF TRPV1 CHANNEL AND USES THEREOF” (Bsense Bio Therapeutics Ltd., priority 2023, published 2026)",
  "key": {"rats [1]": {"tested_on": "rats", "assay": "Core body temperature", "type": "in vivo, rat", "details": "10 mg/kg", "protocol": "Core Body Temperature: Following two days of habituation to the measurement method, the body temperature was measured on study day for baseline values and then again post-dosing in the time points indicated in the figure. Body temperature was measured using a probe gently inserted into the animal anus using a corn oil lubricant (C8267, Sigma-Aldrich, IL)."}, "rats [2]": {"tested_on": "rats", "assay": "Hot plate (53° C.)", "type": "in vivo, rat", "details": "10 mg/kg PO, 2 and 4 hours post-dose", "protocol": "Hot Plate: Animals were placed on hot plate analgesia meter (IITC Life Science Inc., CA, USA) set to 53±1° C., and the time until the first escape response was observed was recorded. A response was considered when the animals lifted or licked their leg or performed kicking behavior."}, "humans": {"tested_on": "humans", "details": "Rowbotham 2011; cited from earlier work"}, "HepG2 cells": {"tested_on": "HepG2 cells", "details": "positive control; read-out: Toxicity IC50; cited from earlier work"}, "hKv7.2/3": {"molecular_target": "T1, hKv7.2/3 (Homo sapiens, UniProt O43525+O43526)", "T1 construct": "host or cells: CHO", "T1 sequence (O43525 whole entry)": "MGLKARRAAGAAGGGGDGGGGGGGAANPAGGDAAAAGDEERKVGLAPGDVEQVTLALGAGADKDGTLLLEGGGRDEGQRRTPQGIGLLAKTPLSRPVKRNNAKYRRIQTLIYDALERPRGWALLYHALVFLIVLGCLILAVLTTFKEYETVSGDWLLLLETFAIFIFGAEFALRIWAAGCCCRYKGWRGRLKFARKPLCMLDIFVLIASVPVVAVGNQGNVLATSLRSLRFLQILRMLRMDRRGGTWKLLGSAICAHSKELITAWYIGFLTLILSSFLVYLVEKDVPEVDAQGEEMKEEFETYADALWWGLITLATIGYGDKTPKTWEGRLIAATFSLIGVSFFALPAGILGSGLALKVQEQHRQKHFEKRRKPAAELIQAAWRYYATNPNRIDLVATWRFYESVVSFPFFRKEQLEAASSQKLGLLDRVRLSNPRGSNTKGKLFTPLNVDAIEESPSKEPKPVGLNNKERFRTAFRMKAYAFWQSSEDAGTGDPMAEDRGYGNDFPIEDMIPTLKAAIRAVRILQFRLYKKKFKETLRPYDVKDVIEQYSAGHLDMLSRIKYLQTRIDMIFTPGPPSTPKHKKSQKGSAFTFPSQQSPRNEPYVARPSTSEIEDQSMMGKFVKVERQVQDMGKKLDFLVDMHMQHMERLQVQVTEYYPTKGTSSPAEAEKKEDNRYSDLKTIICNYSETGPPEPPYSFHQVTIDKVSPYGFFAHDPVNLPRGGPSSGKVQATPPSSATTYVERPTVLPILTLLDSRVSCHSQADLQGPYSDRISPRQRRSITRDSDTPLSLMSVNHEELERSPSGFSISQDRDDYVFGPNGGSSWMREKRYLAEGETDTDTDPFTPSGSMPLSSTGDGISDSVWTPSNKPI", "T1 sequence (O43526 whole entry)": "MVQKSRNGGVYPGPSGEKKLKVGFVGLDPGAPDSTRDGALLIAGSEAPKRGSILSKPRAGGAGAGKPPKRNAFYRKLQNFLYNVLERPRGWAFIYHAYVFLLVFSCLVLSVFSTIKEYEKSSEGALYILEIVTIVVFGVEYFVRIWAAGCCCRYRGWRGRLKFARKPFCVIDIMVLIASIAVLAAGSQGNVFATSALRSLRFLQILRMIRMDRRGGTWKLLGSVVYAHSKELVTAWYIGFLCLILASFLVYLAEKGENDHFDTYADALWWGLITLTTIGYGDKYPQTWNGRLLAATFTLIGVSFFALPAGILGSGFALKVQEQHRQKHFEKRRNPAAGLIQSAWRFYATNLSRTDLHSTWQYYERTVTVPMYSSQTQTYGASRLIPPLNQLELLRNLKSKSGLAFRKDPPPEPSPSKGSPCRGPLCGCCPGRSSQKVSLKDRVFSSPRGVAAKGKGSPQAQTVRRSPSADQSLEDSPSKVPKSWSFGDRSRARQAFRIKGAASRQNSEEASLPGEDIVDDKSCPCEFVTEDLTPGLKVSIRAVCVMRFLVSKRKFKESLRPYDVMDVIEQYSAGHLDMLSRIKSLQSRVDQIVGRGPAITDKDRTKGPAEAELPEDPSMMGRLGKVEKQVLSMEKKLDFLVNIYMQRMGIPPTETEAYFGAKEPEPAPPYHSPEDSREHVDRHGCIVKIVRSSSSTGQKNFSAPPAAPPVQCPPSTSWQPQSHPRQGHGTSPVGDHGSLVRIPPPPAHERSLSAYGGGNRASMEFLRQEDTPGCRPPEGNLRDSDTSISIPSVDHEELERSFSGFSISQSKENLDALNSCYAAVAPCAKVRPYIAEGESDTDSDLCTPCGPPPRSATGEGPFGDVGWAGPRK", "assay": "Kv7.2/7.3 HCS, FLIPR potassium (thallium) assay, CHO/hKv7.2/3", "type": "cell-based", "details": "read-out: Kv7.2/3 maximal opening vs. control", "outline": "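CHO cells stably expressing human Kv7.2/3, loaded with Tl+ indicator dye 1.5 h at room temperature in HBSS/HEPES with compound (0.2% DMSO). Channels activated by injection of 1 mM Tl2SO4 plus 5 mM K2SO4; fluorescence increase reflects Tl+ influx. EC50 from sigmoidal fit constrained to minimum 1, maximum ~3.6.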"}, "hKv7.3/5": {"molecular_target": "T2, hKv7.3/5 (Homo sapiens, UniProt O43525+Q9NR82)", "T2 construct": "expressed in transfected cells; host or cells: CHO", "T2 sequence (O43525 whole entry)": "as the sequence (O43525 whole entry) above", "T2 sequence (Q9NR82 whole entry)": "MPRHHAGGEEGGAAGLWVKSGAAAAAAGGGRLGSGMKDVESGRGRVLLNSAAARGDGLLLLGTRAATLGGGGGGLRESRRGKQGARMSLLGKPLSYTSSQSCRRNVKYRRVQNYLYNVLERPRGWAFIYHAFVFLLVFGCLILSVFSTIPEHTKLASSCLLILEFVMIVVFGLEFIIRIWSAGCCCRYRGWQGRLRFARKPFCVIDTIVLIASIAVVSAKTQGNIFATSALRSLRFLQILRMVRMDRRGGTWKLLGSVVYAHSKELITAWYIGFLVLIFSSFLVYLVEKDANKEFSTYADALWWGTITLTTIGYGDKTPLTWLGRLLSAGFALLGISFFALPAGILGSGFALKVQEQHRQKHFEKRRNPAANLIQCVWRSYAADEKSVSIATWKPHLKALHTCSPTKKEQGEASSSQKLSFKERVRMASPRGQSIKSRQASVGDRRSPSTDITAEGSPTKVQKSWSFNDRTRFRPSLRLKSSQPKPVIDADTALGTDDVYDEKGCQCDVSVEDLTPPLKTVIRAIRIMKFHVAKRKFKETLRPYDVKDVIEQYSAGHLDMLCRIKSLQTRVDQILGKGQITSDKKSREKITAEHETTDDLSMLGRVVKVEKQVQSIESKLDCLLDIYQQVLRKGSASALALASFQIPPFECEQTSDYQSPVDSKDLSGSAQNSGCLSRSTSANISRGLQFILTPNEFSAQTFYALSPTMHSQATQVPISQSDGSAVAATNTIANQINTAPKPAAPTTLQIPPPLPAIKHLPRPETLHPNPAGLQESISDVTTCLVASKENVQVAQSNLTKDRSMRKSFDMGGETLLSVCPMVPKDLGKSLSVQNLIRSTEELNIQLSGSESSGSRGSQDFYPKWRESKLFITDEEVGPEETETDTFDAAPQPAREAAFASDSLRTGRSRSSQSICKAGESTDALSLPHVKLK", "details": "positive control; read-out: Known IC50, Kv7.3/5; cited from earlier work"}, "hKv7.4": {"molecular_target": "T3, hKv7.4 (Homo sapiens, UniProt P56696)", "T3 construct": "expressed in transfected cells; host or cells: CHO", "T3 sequence (P56696 whole entry)": "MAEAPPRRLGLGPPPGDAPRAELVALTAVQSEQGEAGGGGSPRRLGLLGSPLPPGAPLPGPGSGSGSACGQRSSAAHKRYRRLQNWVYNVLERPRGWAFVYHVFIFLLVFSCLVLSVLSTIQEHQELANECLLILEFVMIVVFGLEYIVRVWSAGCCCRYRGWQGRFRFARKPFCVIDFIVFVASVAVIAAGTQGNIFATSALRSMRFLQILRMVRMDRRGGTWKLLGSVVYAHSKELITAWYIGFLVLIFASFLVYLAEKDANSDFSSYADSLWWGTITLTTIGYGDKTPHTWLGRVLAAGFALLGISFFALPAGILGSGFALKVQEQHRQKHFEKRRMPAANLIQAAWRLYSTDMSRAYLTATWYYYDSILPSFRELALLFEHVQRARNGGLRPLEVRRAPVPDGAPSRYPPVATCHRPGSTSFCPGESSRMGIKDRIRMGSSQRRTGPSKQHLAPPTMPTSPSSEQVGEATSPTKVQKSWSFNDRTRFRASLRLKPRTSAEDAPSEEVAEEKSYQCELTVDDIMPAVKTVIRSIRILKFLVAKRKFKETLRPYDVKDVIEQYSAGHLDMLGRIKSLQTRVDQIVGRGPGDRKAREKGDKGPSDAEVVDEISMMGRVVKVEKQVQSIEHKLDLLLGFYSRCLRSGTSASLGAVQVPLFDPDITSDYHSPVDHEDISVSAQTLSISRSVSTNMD", "details": "positive control; read-out: Known IC50, Kv7.4; cited from earlier work"}, "[3]": {"tested_on": "KCNQ2-5-type potassium channels", "details": "cited from earlier work"}, "[4]": {"tested_on": "sodium and calcium channel", "details": "cited from earlier work"}},
  "data": [
    {"smiles": "CC(C)(C)c1ccc2c(c1)CC[C@H]2NC(=O)Nc1cccc2[nH]ncc12", "note": "[ABT102, reference compound]", "values": [
      {"measurement": "Increase of core body temperature vs vehicle", "setting": "rats [1]; 6 hours post-dose", "value": 1.3, "unit": "°C"},
      {"measurement": "Increase of core body temperature vs vehicle", "setting": "rats [1]; 10 hours post-dose", "value": 0.8, "unit": "°C"},
      {"measurement": "Hot plate escape latency", "setting": "rats [2]", "value": "statistically significant increase in hot plate escape latency"},
      {"measurement": "Heat pain threshold, clinical", "setting": "humans", "value": "increase heat pain threshold"}
    ]},
    {"smiles": "NS(=O)(=O)OC[C@H]1C[C@@H](Nc2ccnc3cc(-c4cccc(SC(F)(F)F)c4)nn23)[C@H](O)[C@@H]1O", "note": "[TAK243]", "values": [
      {"measurement": "IC50", "setting": "HepG2 cells", "value": "~200", "unit": "nM"}
    ]},
    {"smiles": "CCOC(=O)Nc1ccc(NCc2ccc(F)cc2)cc1N", "note": "[Retigabine, N-(2-amino-4-(4-fluorobenzylamino)-phenyl)carbamic acid ethyl ester]", "values": [
      {"measurement": "Emax", "setting": "hKv7.2/3", "value": 220, "unit": "%"},
      {"measurement": "IC50", "setting": "hKv7.3/5", "value": "1500 to 5000", "unit": "nM"},
      {"measurement": "IC50", "setting": "hKv7.4", "value": "1500 to 5000", "unit": "nM"},
      {"measurement": "Channel selectivity", "setting": "[3]", "value": "highly selective for KCNQ2-5-type potassium channels"},
      {"measurement": "Other effects", "setting": "[4]", "value": "sodium and calcium channel blocking activity"}
    ]}
  ]
}
